This experiment concerns Mpl-expressing Ba/F3 cell line (human mpl gene). In words: Measurement of thrombopoietin (TPO) activity: viable cell count of Mpl-expressing Ba/F3 cell line (Cell Count Reagent SF, absorbance 450 nm). The format is cell-based. The settings on record: for Concentration: concentration corresponding to the maximum TPO activity value; for TPO activity: maximum TPO activity value, ODt/ODs×100 relative to maximum reaction of human TPO, Mpl-expressing Ba/F3 cells cultured at 37° C. for one day, at the concentration given. The method, then:
The TPO activities of the compounds of the invention obtained in the aforementioned examples were measured by the procedure described below, for evaluation of their thrombopoietic effects.
Establishment of Mpl-expressing Ba/F3 Cell Line
The human mpl gene was cloned from cDNAs of the human erythroleukemia cell line HEL by PCR, and was incorporated into pCOS1 to construct an expression vector. The expression vector was transfected into Ba/F3 cells by electroporation method, and an Mpl-expressing Ba/F3 clone was established.
Measurement of Thrombopoietin (TPO) Activity
The cytokine-eliminated Mpl-expressing Ba/F3 line was plated in a 96-well plate at 25,000 cells/well. DMSO solutions containing the compounds obtained in each of the examples were then prepared to different specified concentration ranges, and each solution was added to the Mpl-expressing Ba/F3 cell line (final DMSO concentration: ≦0.1%), and the cell were cultured at 37° C. for one day. Human TPO (by R&D Systems or Genzyme) was used as a positive control.
Each of the cultured Mpl-expressing Ba/F3 cell lines was subjected to absorbance measurement at a wavelength of 450 nm (reference wavelength: 620 nm), corresponding to the viable cell count, using Cell Count Reagent SF (by Nacalai Tesque Inc.). The TPO activity of each compound for the Mpl-expressing Ba/F3 cell line was determined based on the following formula. TPO activity (%)=ODt/ODs×100
ODs: Absorbance at maximum reaction of human TPO (wavelength: 450-620 nm).
ODt: Absorbance of test solution (wavelength: 450-620 nm).
Tables 1 and 2 show the maximum TPO activity values and the corresponding concentrations of each compound, as obtained by the test described above.

In the case of `Cl.NCCCC[C@@H](NC(=O)c1cnccn1)C(=O)Nc1ccc(C(c2ccc(NC(=O)[C@@H](CCCCN)NC(=O)c3cnccn3)cc2)c2ccc(NC(=O)[C@@H](CCCCN)NC(=O)c3cnccn3)cc2)cc1` [Example 157, tris[4-[N-α-(pyrazin-2-yl)carbonyl-D-lysyl]aminophenyl]methane hydrochloride], the Concentration came out at 50 µM and the TPO activity was determined as 36.1%.
In the case of `Cl.NCCCC[C@@H](NC(=O)Cc1ccncc1)C(=O)Nc1ccc(C(c2ccc(NC(=O)[C@@H](CCCCN)NC(=O)Cc3ccncc3)cc2)c2ccc(NC(=O)[C@@H](CCCCN)NC(=O)Cc3ccncc3)cc2)cc1` [Example 173, tris[4-[N-α-[2-(pyridin-4-yl)acetyl]-D-lysyl]aminophenyl]methane hydrochloride], the Concentration came out at 100 µM and the TPO activity came to 35.4%.
With `Cl.NCCCC[C@@H](NC(=O)Cc1ccsc1)C(=O)Nc1ccc(C(c2ccc(NC(=O)[C@@H](CCCCN)NC(=O)Cc3ccsc3)cc2)c2ccc(NC(=O)[C@@H](CCCCN)NC(=O)Cc3ccsc3)cc2)cc1` [Example 23, tris[4-[N-α-[2-(thiophen-3-yl)acetyl]-D-lysyl]aminophenyl]methane hydrochloride], the Concentration amounted to 25 µM and the TPO activity is given as 48.0%.
As for `NCCCC[C@H](NC(=O)c1cccc2cc(O)ccc12)C(=O)Nc1ccc(C(c2ccc(NC(=O)[C@H](CCCCN)NC(=O)c3cccc4cc(O)ccc34)cc2)c2ccc(NC(=O)[C@H](CCCCN)NC(=O)c3cccc4cc(O)ccc34)cc2)cc1.O=C(O)C(F)(F)F` [Example 200, tris[4-[N-α-(6-hydroxynaphthalen-1-yl)carbonyl-L-lysyl]aminophenyl]methane trifluoroacetate], the Concentration worked out at 25 µM and the TPO activity amounted to 144%.
For the molecule `Cc1[nH]c2ccccc2c1CC(=O)N[C@@H](CCN)C(=O)Nc1ccc(C(c2ccc(NC(=O)[C@H](CCN)NC(=O)Cc3c(C)[nH]c4ccccc34)cc2)c2ccc(NC(=O)[C@H](CCN)NC(=O)Cc3c(C)[nH]c4ccccc34)cc2)cc1.O=C(O)C(F)(F)F` [Example 132, tris[4-[β-aminomethyl-N-[2-(2-methyl-1H-indol-3-yl)acetyl]-L-alanyl]aminophenyl]methane trifluoroacetate], the Concentration amounted to 50 µM and the TPO activity is listed as 22.3%.
For `NCCCC[C@@H](NC(=O)c1cccc(O)c1)C(=O)Nc1ccc(C(c2ccc(NC(=O)[C@@H](CCCCN)NC(=O)c3cccc(O)c3)cc2)c2ccc(NC(=O)[C@@H](CCCCN)NC(=O)c3cccc(O)c3)cc2)cc1.O=C(O)C(F)(F)F` [Example 186, tris[4-[N-α-(3-hydroxybenzoyl)-D-lysyl]aminophenyl]methane trifluoroacetate], the Concentration came out at 25 µM and the TPO activity is reported as 35.8%.
As for `NCCCC[C@@H](NC(=O)Cc1c[nH]c2ccccc12)C(=O)Nc1ccc(N(c2ccc(NC(=O)[C@@H](CCCCN)NC(=O)Cc3c[nH]c4ccccc34)cc2)c2ccc(NC(=O)[C@@H](CCCCN)NC(=O)Cc3c[nH]c4ccccc34)cc2)cc1.O=C(O)C(F)(F)F` [Example 201, tris[4-[N-α-[2-(1H-indol-3-yl)acetyl]-D-lysyl]aminophenyl]amine trifluoroacetate], the Concentration was 25 µM and the TPO activity was 110%.
With `COc1ccc2c(CC(=O)N[C@H](CCCCN)C(=O)Nc3ccc(C(c4ccc(NC(=O)[C@@H](CCCCN)NC(=O)Cc5c(C)[nH]c6cc(OC)ccc56)cc4)c4ccc(NC(=O)[C@@H](CCCCN)NC(=O)Cc5c(C)[nH]c6cc(OC)ccc56)cc4)cc3)c(C)[nH]c2c1.Cl` [Example 146, tris[4-[N-α-[2-(6-methoxy-2-methyl-1H-indol-3-yl)acetyl]-D-lysyl]aminophenyl]methane hydrochloride], the Concentration came out at 25 µM and the TPO activity came out at 83.6%.
For the molecule `Cl.NCCCC[C@@H](NC(=O)c1cccc2[nH]ccc12)C(=O)Nc1ccc(C(c2ccc(NC(=O)[C@@H](CCCCN)NC(=O)c3cccc4[nH]ccc34)cc2)c2ccc(NC(=O)[C@@H](CCCCN)NC(=O)c3cccc4[nH]ccc34)cc2)cc1` [Example 152, tris[4-[N-α-(1H-indol-4-yl)carbonyl-D-lysyl]aminophenyl]methane hydrochloride], the Concentration is 25 µM and the TPO activity is recorded as 62.0%.
Take `Cl.NCCCC[C@@H](NC(=O)Cc1cccs1)C(=O)Nc1ccc(C(c2ccc(NC(=O)[C@@H](CCCCN)NC(=O)Cc3cccs3)cc2)c2ccc(NC(=O)[C@@H](CCCCN)NC(=O)Cc3cccs3)cc2)cc1` [Example 164, tris[4-[N-α-[2-(thiophen-2-yl)acetyl]-D-lysyl]aminophenyl]methane hydrochloride]: the Concentration was 25 µM and the TPO activity worked out at 24.9%.
Take `Cl.NCCCC[C@@H](NC(=O)c1cc2cc(O)ccc2[nH]1)C(=O)Nc1ccc(C(c2ccc(NC(=O)[C@@H](CCCCN)NC(=O)c3cc4cc(O)ccc4[nH]3)cc2)c2ccc(NC(=O)[C@@H](CCCCN)NC(=O)c3cc4cc(O)ccc4[nH]3)cc2)cc1` [Example 151, tris[4-[N-α-(5-hydroxy-1H-indol-2-yl)carbonyl-D-lysyl]aminophenyl]methane hydrochloride]: the Concentration is 50 µM and the TPO activity was found to be 90.8%.

Source of the values: patent US6887890B2, “Compounds exhibiting thrombopoietin-like activities” (Chugai Seiyaku Kabushiki Kaisha, priority 2000, dated 2005).
